Patent US20160256421A1, “COMPOSITION CONTAINING EUGENOL AS ACTIVE INGREDIENT FOR PREVENTING OR TREATING ATOPIC DERMATITIS” (SEOUL NATIONAL UNIVERSITY R&DB FOUNDATION, priority 2013, published 2016)

Legend:
[1] = test system: histamine-induced pruritus; assay: Scratch test, histamine-induced pruritus, simultaneous intradermal injection of compound; type: in vivo, mice; details: 10 μM compound injected simultaneously with 500 μg/site histamine, 30 minutes, histamine only about 152, FIG. 11
Procedure: In order to confirm reactions to pruritus-inducing substances such as histamine or serotonin in the present invention, a behavior experiment was conducted. In order to induce scratching, histamine and serotonin which are known to induce itchy sensation in humans were used. Here, histamine or serotonin was diluted with sterilized saline solution. On the day before the experiment, experimental animals were anaesthetized by mixing zolitel and rompun at a ratio of 1:4 and injecting 1 mL/kg thereof, and hair on the nape areas of a 1.5 cm×1.5 cm square was removed using a clipper on the nape of experimental animals. On the day of the experiment, a box of 10 cm×20 cm×15 cm dimensions was produced and mice were stabilized for 30 minutes therein. Thereafter, 100 μL of solvents or the experimental substance was applied on the back of the neck of mice, and after 30 minutes, 50 μL of pruritus-inducing substances (500 μg/site of histamine or 10 μg/site of serotonin) was injected at the back of the neck of experimental animals via intradermal injection. Next, reactions of experimental animals were video-recorded for 30 minutes, and a scratch test was conducted by counting up and down of a hind paw of an experimental animal to the injected area in the back of the neck as one scratch. […]
As described in Experimental Example 4, in order to induce scratching, experimental animals in the control group were injected with 500 μg/site of histamine at the back of the neck via intradermal injection, and along with the histamine, the experimental group was simultaneously injected with 10 μM isoeugenol (mixture of cis and trans, 82 ng) and 10 μM methyleugenol (89 ng) as representative eugenol derivatives, as well as 10 μM eugenol (82 ng). Thereafter, the reactions of experimental animals were video-recorded for 30 minutes, and a scratch test was conducted by counting the action of going up and down of a hind paw of an experimental animal to the injected area in the back of the neck as one scratch.

[2] = cited from earlier work
[3] = test system: mechanical pain; assay: von-Frey test, acute mechanical pain reactions; type: in vivo, mice; details: 3 wt % eugenol
Procedure: However, effects of blocking pain by blocking Na ion channels are induced by blocking all the dermal sensory information and thus are non-specific phenomena. Therefore, von-Frey test was conducted to examine whether antipruritic effects are induced by reduced excitation via blocking voltage-dependent Na ion channels of sensory nerves by confirming whether eugenol at a pruritus-effective concentration blocks pain reactions. With reference to Chaplan et al. (1994), hind paws of experimental animals were stimulated with von-Frey filaments (0.02 g to 4 g), and 50% avoidance reactions were measured. Through this process, avoidance reactions to mechanical stimulations were measured and assessed as a reaction threshold.

[4] = test system: serotonin-induced pruritus; assay: Scratch test, serotonin-induced pruritus, cream applied; type: in vivo, mice; details: serotonin 10 μg
Excerpt: (§1) 7-week-old male C57/BL6 mice were used in the present experiment, and in order to produce atopic dermatitis models, 7-week-old male balb/c nude mice were purchased from Orient Bio (Korea) and used. The method described in the manuscript of Kuraishi et al., presented the original form of mouse models developed in the present invention (Kuraishi et al., 1995). The group consisting of male BL6/C57 mice weighing 20 g to 23 g was used in the experiment. The experiment proceeded after experimental animals were accustomed to the conventional environment of 23±2° C. and 55±15% humidity for 3 days, in which light was constrained from 8 pm to 8 am, and were given ad libitum access to food and water. In order to confirm reactions to pruritus-inducing substances such as histamine or serotonin in the present invention, a behavior experiment was conducted. In order to induce scratching, histamine and serotonin which are known to induce itchy sensation in humans were used. Here, histamine or serotonin was diluted with sterilized saline solution. […] Next, reactions of experimental animals were video-recorded for 30 minutes, and a scratch test was conducted by counting up and down of a hind paw of an experimental animal to the injected area in the back of the neck as one scratch. […]

[5] = target: TRPV1 (Homo sapiens, UniProt Q8NER1); details: high concentration; cited from earlier work
Chain of TRPV1 (Q8NER1 whole entry, species assumed): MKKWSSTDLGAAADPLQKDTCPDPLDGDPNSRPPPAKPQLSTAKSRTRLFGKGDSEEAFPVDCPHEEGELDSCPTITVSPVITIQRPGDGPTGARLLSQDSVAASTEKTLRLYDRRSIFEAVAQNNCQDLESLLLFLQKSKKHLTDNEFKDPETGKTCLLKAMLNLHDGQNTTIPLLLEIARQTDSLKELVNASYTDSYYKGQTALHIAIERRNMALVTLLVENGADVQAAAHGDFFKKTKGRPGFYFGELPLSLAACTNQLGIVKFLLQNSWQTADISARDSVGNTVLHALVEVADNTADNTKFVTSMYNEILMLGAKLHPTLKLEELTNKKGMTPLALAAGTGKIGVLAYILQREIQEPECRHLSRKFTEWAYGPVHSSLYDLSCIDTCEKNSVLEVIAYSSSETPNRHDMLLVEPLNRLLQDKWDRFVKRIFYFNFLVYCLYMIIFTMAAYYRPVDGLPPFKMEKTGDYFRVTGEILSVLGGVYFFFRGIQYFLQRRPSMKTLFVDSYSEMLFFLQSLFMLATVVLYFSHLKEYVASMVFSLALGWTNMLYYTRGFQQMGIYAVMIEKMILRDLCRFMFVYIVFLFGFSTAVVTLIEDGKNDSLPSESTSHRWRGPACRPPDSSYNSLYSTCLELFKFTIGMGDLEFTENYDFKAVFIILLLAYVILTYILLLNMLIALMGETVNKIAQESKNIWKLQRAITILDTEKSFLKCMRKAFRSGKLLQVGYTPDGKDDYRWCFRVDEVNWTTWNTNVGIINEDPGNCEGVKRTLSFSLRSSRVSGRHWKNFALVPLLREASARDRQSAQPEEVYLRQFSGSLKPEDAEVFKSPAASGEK

[6] = test system: heat pain (capsaicin receptors); assay: Hargreaves test, acute heat pain reactions; type: in vivo, mice; details: 3 wt % eugenol compared to the base cream
Procedure: In order to examine whether 3 wt % eugenol acts on capsaicin receptors and effects behavioral reactions to heat stimulation, Hargreaves test was conducted. With reference to Hargreaves et al. (1988), heat stimulation by light was delivered to a hind paw of a subject, and the corresponding avoidance reaction time was measured.

[7] = test system: atopic dermatitis animal models (oxalozone-induced); assay: Visual inspection of dermal recovery in atopic dermatitis animal models; type: in vivo, balb/c nude mice; details: 200 μL of 3 wt % eugenol cream, same time of a day for a week, FIG. 2
Excerpt: 7-week-old male C57/BL6 mice were used in the present experiment, and in order to produce atopic dermatitis models, 7-week-old male balb/c nude mice were purchased from Orient Bio (Korea) and used. The method described in the manuscript of Kuraishi et al., presented the original form of mouse models developed in the present invention (Kuraishi et al., 1995). The group consisting of male BL6/C57 mice weighing 20 g to 23 g was used in the experiment. The experiment proceeded after experimental animals were accustomed to the conventional environment of 23±2° C. and 55±15% humidity for 3 days, in which light was constrained from 8 pm to 8 am, and were given ad libitum access to food and water. Atopic dermatitis animal models were produced with reference to Hatano et al. (2011), and it is known that TRPV1 is mediated in the developmental mechanism. Particularly, balb/c nude mice were used to produce the atopic dermatitis animal models. In the first two days, 50 μL of 5% oxalozone was treated to sensitize the back of the neck of experimental animals, and a week of recovery followed. In the next 4 weeks, 60 μL of 0.5% oxalozone was treated for a total of 12 times to complete atopic dermatitis animal models (FIG. 1). […]

[8] = test system: histamine-induced pruritus; assay: Scratch test, histamine-induced pruritus, cream applied; type: in vivo, mice; details: histamine 500 μg intradermal
Excerpt: as §1

SMILES | number of scratching on average [1] | solubility in organic solvents [2] | solubility in water [2] | mechanical pain, 50% avoidance reaction threshold (von-Frey) [3] | antipruritic effects on serotonin-induced pruritus ([4]; 100 μL of 3 wt % eugenol) | antipruritic effects on serotonin-induced pruritus ([4]; 100 μL of 10 wt % eugenol) | concentration at which TRPV1 is activated [5] | avoidance reaction in response to heat pain (Hargreaves) [6] | dermal recovery from atopic dermatitis (visual inspection) [7] | reduction of pruritus reactions ([8]; 3 wt % eugenol cream, 30 minutes) | blocking effects on histamine-dependent pruritus ([8]; 10 wt % eugenol cream)
CC=Cc1ccc(O)c(OC)c1 (racemic) [isoeugenol, (E) or (Z)-2-methoxy-4-(prop-1-enyl)phenol] | about 80 times |  |  |  |  |  |  |  |  |  | 
C=CCc1ccc(O)c(OC)c1 [eugenol, 4-allyl-2-methoxyphenol] | about 45 times | high | low | did not show a significant difference | antipruritic effects were not observed | showed blocking of serotonin-induced pruritus | ≥ 1 mM | significantly increased avoidance reaction | recovered skin to the normal level | at least 40% | increased blocking effects on histamine-dependent pruritus
C=CCc1ccc(OC)c(OC)c1 [methyleugenol] | 99 times |  |  |  |  |  |  |  |  |  | 
